Test results: patent US5455222A, “1-substituted-5-thiomethylthiocyanato-1H-tetrazoles, compositions containing them and their use as antimicrobial and marine antifouling agents” (The Dow Chemical Company, priority 1994, dated 1995)
Values after ≈ are worked out from the molar mass of the structure shown.

Legend:
[1] = tested on: Bacillus subtilis (Bs); assay: Minimum inhibitory concentration (MIC), bacteria in nutrient agar; format: cell-based, Bacillus subtilis ATCC 8473; details: 48 hours
Experimental: (§1) The minimum inhibitory concentration (MIC) for the compounds listed in Table I is determined for 9 bacteria, using nutrient agar, and 7 yeast and fungi, using malt yeast agar. A one percent solution of the test compound is prepared in a mixture of acetone and water.
(§2) Nutrient agar is prepared at pH 6.8, representing a neutral medium, and at pH 8.2, representing an alkaline medium. The nutrient agars are prepared by adding 23 g of nutrient agar to one liter of deionized water. In addition, the alkaline medium is prepared by adjusting a 0.04M solution of N-[tris-(hydroxymethyl)methyl]glycine buffered deionized water with concentrated sodium hydroxide to a pH of 8.5.
(§3) The test tubes containing the agar are cooled in a water bath until the temperature of the agar is 48° C. Then, an appropriate amount of the one percent solution of the test compound is added (except in the controls where no compound is added) to the respective test tubes so that the final concentrations are 500, 250, 100, 50, 25, 10, 5, 2.5, 1.0 and zero parts per million of the test compound in the agar, thus having a known concentration of test compound dispersed therein. The contents of the test tubes are then transferred to respective petri plates. After drying for 24 hours, the petri plates containing nutrient agar are inoculated with bacteria and those containing malt yeast agar are inoculated with yeast and fungi.
(§4) The inoculation with bacteria is accomplished by using the following procedure. Twenty-four hour-cultures of each of the bacteria are prepared by incubating the respective bacteria in tubes containing nutrient broth for 24 hours at 30° C. in a shaker. Dilutions of each of the 24 hour-cultures are made so that nine separate suspensions (one for each of the nine test bacteria) are made, each containing 10^8 colony forming units (CFU) per mL of suspension of a particular bacteria. Aliquots of 0.3 mL of each of the bacterial suspensions are used to fill the individual wells of Steer's Replicator. For each microbial suspension, 0.3 mL was used to fill three wells (i.e., three wells of 0.3 mL each) so that for the nine different bacteria, 27 wells are filled. The Steer's Replicator is then used to inoculate both the neutral and alkaline pH nutrient agar petri plates.
(§5) The inoculated petri plates are incubated at 30° C. for 48 hours and then read to determine if the test compound which is incorporated into the agar prevented growth of the respective bacteria.
(§6) Table II lists the bacteria, yeast and fungi used in the MIC test described above along with their respective American Type Culture Collection (ATCC) identification numbers.
(§7) In Tables III and IV, the MIC values of the compounds described in Table I as compared to the MIC of a standard commercial preservative (with 1-(3-chloroallyl)-3,5,7-triaza-1-azoniaadamantane chloride as the active agent and referred to in Tables III and IV as "STANDARD I") are set forth for the bacteria organisms and yeast/fungi organisms which are listed in Table II.

[2] = tested on: Enterobacter aerogenes (Ea); assay: as above; format: cell-based, Enterobacter aerogenes ATCC 13048; details: Klebsiella aerogenes, 48 hours
Experimental: as §1, §2, §3, §4, §5, §6, §7

[3] = tested on: Escherichia coli (Ec); assay: as above; format: cell-based, Escherichia coli ATCC 11229; details: 48 hours
Experimental: as §1, §2, §3, §4, §5, §6, §7

[4] = tested on: Klebsiella pneumoniae (Kp); assay: as above; format: cell-based, Klebsiella pneumoniae ATCC 8308; details: 48 hours
Experimental: as §1, §2, §3, §4, §5, §6, §7

[5] = tested on: Proteus vulgaris (Pv); assay: as above; format: cell-based, Proteus vulgaris ATCC 881; details: 48 hours
Experimental: as §1, §2, §3, §4, §5, §6, §7

[6] = tested on: Pseudomonas aeruginosa (PRD-10); assay: as above; format: cell-based, Pseudomonas aeruginosa ATCC 15442; details: 48 hours
Experimental: as §1, §2, §3, §4, §5, §6, §7

[7] = tested on: Salmonella choleraesuis (Sc); assay: as above; format: cell-based, Salmonella choleraesuis ATCC 10708; details: Salmonella enterica, 48 hours
Experimental: as §1, §2, §3, §4, §5, §6, §7

[8] = tested on: Staphylococcus aureus (Sa); assay: as above; format: cell-based, Staphylococcus aureus ATCC 6538; details: 48 hours
Experimental: as §1, §2, §3, §4, §5, §6, §7

[9] = tested on: Aspergillus niger (An); assay: Minimum inhibitory concentration (MIC), yeast/fungi in malt yeast agar; format: cell-based, Aspergillus niger ATCC 16404; details: 30° C., 72 hours for fungi
Experimental: as §1
(§8) Malt yeast agar is prepared by adding 3 g yeast extract and 45 g malt agar per liter of deionized water. The specific agar is dispensed in 30 mL aliquots into 25×200 mm test tubes, capped and autoclaved for 15 minutes at 115° C.
as §3
(§9) The inoculation with the yeast and fungi is accomplished as follows. Cultures of yeast and fungi are incubated for seven days on malt yeast agar at 30° C. These cultures are used to prepare suspensions by the following procedure. A suspension of each organism is prepared by adding 10 mL of sterile saline and 10 microliters of octylphenoxy polyethoxy ethanol to the agar slant of yeast or fungi. The sterile saline/octylphenoxy polyethoxy ethanol solution is then agitated with a sterile swab to suspend the microorganism grown on the slant. Each resulting suspension is diluted into sterile saline (1 part suspension to 9 parts sterile saline). Aliquots of these dilutions are placed in individual wells of Steer's Replicator and petri plates inoculated as previously described. The petri plates are incubated at 30° C. and read after 48 hours for yeast and 72 hours for fungi.
as §6, §7

[10] = tested on: Candida albicans (Ca); assay: as above; format: cell-based, Candida albicans ATCC 10231; details: 30° C., 48 hours for yeast
Experimental: as §1, §8, §3, §9, §6, §7

[11] = tested on: Penicillium chrysogenum (Pc); assay: as above; format: cell-based, Penicillium chrysogenum ATCC 9480; details: 30° C., 72 hours for fungi
Experimental: as §1, §8, §3, §9, §6, §7

[12] = tested on: Saccharomyces cerevisiae (Sc); assay: as above; format: cell-based, Saccharomyces cerevisiae ATCC 4105; details: 30° C., 48 hours for yeast
Experimental: as §1, §8, §3, §9, §6, §7

[13] = tested on: Trichoderma viride (Tv); assay: as above; format: cell-based, Trichoderma viride ATCC 8678; details: 30° C., 72 hours for fungi
Experimental: as §1, §8, §3, §9, §6, §7

[14] = tested on: Aureobasidium pullulan (Ap); assay: as above; format: cell-based, Aureobasidium pullulan ATCC 16622; details: 30° C., read after 48 hours for yeast and 72 hours for fungi
Experimental: as §1, §8, §3, §9, §6, §7

[15] = tested on: Fusarium oxysporum (Fo); assay: as above; format: cell-based, Fusarium oxysporum ATCC 48112; details: 30° C., 72 hours for fungi
Experimental: as §1, §8, §3, §9, §6, §7

[16] = tested on: Pseudomonas aeruginosa (Pa); assay: Minimum inhibitory concentration (MIC), bacteria in nutrient agar; format: cell-based, Pseudomonas aeruginosa ATCC 10145; details: 48 hours
Experimental: as §1, §2, §3, §4, §5, §6, §7

Row | Compound | MIC ([1]; nutrient agar pH 6.8, 30° C.) | MIC ([1]; nutrient agar pH 8.2, 30° C.) | MIC ([2]; nutrient agar pH 6.8, 30° C.) | MIC ([2]; nutrient agar pH 8.2, 30° C.) | MIC ([3]; nutrient agar pH 6.8, 30° C.) | MIC ([3]; nutrient agar pH 8.2, 30° C.) | MIC ([4]; nutrient agar pH 6.8, 30° C.) | MIC ([4]; nutrient agar pH 8.2, 30° C.) | MIC ([5]; nutrient agar pH 6.8, 30° C.) | MIC ([5]; nutrient agar pH 8.2, 30° C.) | MIC ([6]; nutrient agar pH 6.8, 30° C.) | MIC ([6]; nutrient agar pH 8.2, 30° C.) | MIC ([7]; nutrient agar pH 6.8, 30° C.) | MIC ([7]; nutrient agar pH 8.2, 30° C.) | MIC ([8]; nutrient agar pH 6.8, 30° C.) | MIC ([8]; nutrient agar pH 8.2, 30° C.) | MIC [9] | MIC [10] | MIC [11] | MIC [12] | further results
1 | Cc1ccc(-n2nnnc2SCSC#N)cc1 [VII, 1-(4-Methylphenyl)-5-thiomethylthiocyanato-1H-tetrazole] | < 10 µg/mL | < 10 µg/mL | > 500 µg/mL | > 500 µg/mL | 500 µg/mL (≈ 1900 µM) | 500 µg/mL (≈ 1900 µM) | 250 µg/mL (≈ 949 µM) | 100 µg/mL (≈ 380 µM) | 100 µg/mL (≈ 380 µM) | 250 µg/mL (≈ 949 µM) | 500 µg/mL (≈ 1900 µM) | 250 µg/mL (≈ 949 µM) | > 500 µg/mL | > 500 µg/mL | 25 µg/mL (≈ 94.9 µM) | 50 µg/mL (≈ 190 µM) | 2.5 µg/mL (≈ 9.49 µM) | 10 µg/mL (≈ 38 µM) | < 1 µg/mL | < 1 µg/mL | MIC [13]: 10 µg/mL (≈ 38 µM); MIC [14]: < 1 µg/mL; MIC [15]: 5 µg/mL (≈ 19 µM)
2 | COc1ccc(-n2nnnc2SCSC#N)cc1 [VIII, 1-(4-Methoxyphenyl)-5-thiomethylthiocyanato-1 H-tetrazole] | < 10 µg/mL | 25 µg/mL (≈ 89.5 µM) | 250 µg/mL (≈ 895 µM) | 500 µg/mL (≈ 1790 µM) | 100 µg/mL (≈ 358 µM) | 500 µg/mL (≈ 1790 µM) | 250 µg/mL (≈ 895 µM) | 100 µg/mL (≈ 358 µM) | 250 µg/mL (≈ 895 µM) | 500 µg/mL (≈ 1790 µM) | 100 µg/mL (≈ 358 µM) | 500 µg/mL (≈ 1790 µM) | 250 µg/mL (≈ 895 µM) | 500 µg/mL (≈ 1790 µM) | 25 µg/mL (≈ 89.5 µM) | 100 µg/mL (≈ 358 µM) | < 10 µg/mL | 25 µg/mL (≈ 89.5 µM) | < 10 µg/mL | < 10 µg/mL | MIC ([16]; nutrient agar pH 8.2, 30° C.): 100 µg/mL (≈ 358 µM); MIC [13]: 25 µg/mL (≈ 89.5 µM); MIC [14]: < 10 µg/mL; MIC [15]: < 10 µg/mL
3 | N#CSCSc1nnnn1-c1ccc([N+](=O)[O-])cc1 [XI, 1-(4-Nitrophenyl)-5-thiomethylthiocyanato-1H-tetrazole] | > 100 µg/mL | > 100 µg/mL | > 100 µg/mL | > 100 µg/mL | > 100 µg/mL | > 100 µg/mL | < 100 µg/mL | > 100 µg/mL | < 100 µg/mL | > 100 µg/mL | > 100 µg/mL | > 100 µg/mL | > 100 µg/mL | > 100 µg/mL | 100 µg/mL (≈ 340 µM) | 50 µg/mL (≈ 170 µM) | 5 µg/mL (≈ 17 µM) | 100 µg/mL (≈ 340 µM) | < 2.5 µg/mL | 10 µg/mL (≈ 34 µM) | MIC ([16]; nutrient agar pH 6.8, 30° C.): > 100 µg/mL; MIC ([16]; nutrient agar pH 8.2, 30° C.): > 100 µg/mL; MIC [13]: 25 µg/mL (≈ 84.9 µM); MIC [14]: 10 µg/mL (≈ 34 µM); MIC [15]: 25 µg/mL (≈ 84.9 µM)
4 | N#CSCSc1nnnn1-c1ccc(C#N)cc1 [XII, 1-(4-Cyanophenyl)-5-thiomethylthiocyanato-1H-tetrazole] | < 10 µg/mL | 40 µg/mL (≈ 146 µM) | 500 µg/mL (≈ 1820 µM) | > 400 µg/mL | 200 µg/mL (≈ 729 µM) | 400 µg/mL (≈ 1460 µM) | 100 µg/mL (≈ 365 µM) | 100 µg/mL (≈ 365 µM) | 100 µg/mL (≈ 365 µM) | 200 µg/mL (≈ 729 µM) | 500 µg/mL (≈ 1820 µM) | 400 µg/mL (≈ 1460 µM) | 500 µg/mL (≈ 1820 µM) | 400 µg/mL (≈ 1460 µM) | 20 µg/mL (≈ 72.9 µM) | 100 µg/mL (≈ 365 µM) | < 10 µg/mL | 200 µg/mL (≈ 729 µM) | < 10 µg/mL | 40 µg/mL (≈ 146 µM) | MIC ([16]; nutrient agar pH 8.2, 30° C.): 200 µg/mL (≈ 729 µM); MIC [13]: 40 µg/mL (≈ 146 µM); MIC [14]: < 10 µg/mL; MIC [15]: 20 µg/mL (≈ 72.9 µM)
